Experimental data from patent US8097650B2, “Method of treating a condition associated with phosphorylation of TASK-1” (The Trustees of Columbia University In The City of New York, priority 2005, dated 2012).

Key:
quiescent myocytes = test: Spontaneous activity in quiescent mouse ventricular myocytes (current clamp); format: cell-based; details: C-PAF 185 nM
Experimental: Adult mice, 2-3 months old, were anesthetized with ketamine/xylazine and their hearts were removed according to protocols approved by the Columbia University-IACUC. Experiments were performed on single rod-shaped, quiescent ventricular myocytes dissociated using a standard retrograde collagenase perfusion (Kuznetsov V et al. (1995) Circ Res 76: 40-52) from hearts of mice that were either wild-type (WT), or PAFR knockouts (KO). Both WT and KO mice were bred on a C57/B16 background. The derivation of the KO mice has been described previously (Hoffman, B F et al.(1996) J Cardiovasc Electrophysiol 7:120-133).
Prior to electrophysiological measurements, cells were placed into the perfusion chamber and superfused at room temperature with Tyrode's buffer (in mM: NaCl, 140; KCl, 5.4; CaCl2 1; MgCl2, Hepes, 5; Glucose, 10; pH 7.4). The whole-cell patch clamp technique was used with pipettes having resistances of 1.5-3 MΩ (intracellular solution, in mM: aspartic acid, 130; KOH, 146; NaCl, 10; CaCl2, 2; EGTA, 5; Hepes, 10; MgATP, 2; pH 7.2). Solutions of C-PAF, the PAFR antagonist, CV-6209 (Biomol) and the PKC inhibitor, bisindolylmaleimide I (BIM I; Calbiochem) were prepared in water and diluted in Tyrode's before use. […] A custom-made fast perfusion device was used to exchange the solution around the cell within 1 s (DiFrancesco et al. (1986) J Physiol 377: 61-88).
Current and voltage protocols were generated using Clampex 7.0 software applied by means of an Axopatch 200B amplifier and a Digidata 1200 interface (Axon Instruments). During voltage clamp, steady state current traces were acquired at 500 Hz and final filtered at 10 Hz. During current clamp, membrane voltage was acquired at 5 KHz and filtered at 1 KHz. Ramp clamps were conducted by imposing a voltage ramp (14 mV/s) at a 500 Hz acquisition rate with 1 kHz filtering. Data were analyzed using pCLAMP 8.0 (Axon) and Origin 6.0 (Microcal) and are presented as mean±SEM. Steady-state current was determined by computer calculation of average current over a time period of at least 5 s. In all experiments, the n value indicates the number of myocytes studied, and represents pooled data from at least 2 (voltage clamp) or 3 (current clamp) animals. Student's t-test, one-way ANOVA and χ^2 tests were used; a value of p<0.05 was considered statistically significant. Records have been corrected for the junction potential, which was measured to be 9.8 mV.

[1] = system: mouse ventricular myocytes; test: Repolarization abnormalities in mouse ventricular myocytes paced at 1 Hz with PKCε peptides; format: cell-based
Experimental: Mouse ventricular myocytes were isolated using a retrograde coronary perfusion method previously published (Kuznetsov V et al. (1995) Circ Res 76: 40-52). All the experiments were carried out according to the guidelines issued by the IACUC of Columbia University. Adult mice 2 or 3 months old, were anaesthetized with a xylazine and ketamine mix and heparinized, the heart was quickly removed and the ascending aorta was connected to the outlet of a Langendorff column and perfused with 20-25 ml of a buffer solution (37° C.) containing (mM):NaCl, 112; KCl, 5.4; NaHCO3, 4.2; MgCl2, 1.6; HEPES, 20; glucose, 5.4; NaH2PO4, 1.7; taurine, 10; L-glutamine, 4.1; MEM amino acids solution, 2%; MEM vitamin solution, 1%; adjusted to pH 7.4, and equilibrated with 100% O2. Next, the heart was perfused with an enzyme solution containing collagenase (0.2 mg/ml; Worthington Type II) and trypsin (0.04 mg/ml) at 35° C. for 10-12 min. After this perfusion, the atria were removed and the ventricles minced and transferred to a 50 ml flask with an enzyme solution containing collagenase (0.45 mg/ml), trypsin (0.08 mg/ml), Ca^2+ (0.75 mM) and bovine serum albumin (BSA; 4.8 mg/ml). The flask was shaken vigorously for 5-10 min at 32° C. before the supernatant was removed and the cells were collected by centrifugation, this operation was repeated two or three times and additional disaggregated cells were collected. After centrifugation, the myocytes were resuspended in the buffer solution containing Ca^2+ (0.75 mM) and BSA and stored at room temperature until use. Rod-shaped, Ca^2+-tolerant myocytes, obtained with this procedure, were used within 6 h of dissociation. Measurements were performed only on quiescent myocytes with clear striations
The myocyte suspension or the coverslip with CHO cells was placed into a perfusion chamber, mounted on the stage of an inverted microscope. Unless otherwise indicated, CHO cells were superfused at room temperature with standard external Tyrode's buffer, containing (mM): NaCl, 140; KCl, 5.4; CaCl2, 1; MgCl2, 1; HEPES, 5; glucose, 10; adjusted to pH 7.4. Recordings were begun after the current reached a stable baseline (usually 3 to 4 min after initial cell rupture). In myocytes, TASK-1 current is small and exists in the presence of numerous larger K^+ currents. In order to increase the inward component of TASK-1 current and to block other potassium currents in myocytes, a modified high K^+ external solution (modified Tyrode's) was used to reduce outward rectification of TASK-1 current. The composition of this solution-was (in mM): NaCl, 100; KCl, 50; CaCl2, 1; MgCl2, 1; HEPES, 5; glucose, 10; tetraethylammonium (TEA), 1; CsCl, 5; adjusted to pH 7.4. Membrane potential and current were measured in the whole cell configuration using borosilicate glass pipettes with a tip resistance between […] and filled with a pipette solution containing (mM): aspartic acid, 130; KOH, 146; NaCl, 10; CaCl2, 2; EGTA, 5; HEPES, 10; MGATP, 2; pH 7.2. The stock solutions of C-PAF and of the PKC inhibitor, bisindolylmaleimide (BIM-I; Calbiochem), were prepared in water and diluted to the final concentrations in Tyrode's or modified Tyrode's, as appropriate. The PKC activator, PMA, was prepared in DMSO and then diluted in Tyrode's. […] Myocytes treated with the peptides were monitored continuously beginning immediately after rupture to detect the occurrence of any arrhythmias during dialysis of the peptide. Application of C-PAF to cells treated with the inhibitor peptide was started after the peptide had been permitted to dialyse into the cell (8-10 min after rupture for CHO or 10-12 min after rupture for myocytes).
The current and the voltage protocols were generated using Clampex 8.0 software applied by means of an Axopatch 200-B and a Digidata 1200 interface (Axon Instruments). In current clamp mode, for recording action potentials, the signals were filtered at 1 KHz (low pass Bessel filter) and acquired at a sampling rate of 5 KHz. […]

## CCCCCCCCCCCCCCCCOC[C@H](COP(=O)([O-])OCC[N+](C)(C)C)OC(=O)NC [C-PAF, carbamyl-platelet-activating factor]
Quiescent myocytes
  PAFR KO myocytes with no response: 7 of 9
  quiescent WT myocytes sensitive to C-PAF superfusion: 11 of 11
Quiescent myocytes; quiescent WT myocytes
  initial delay of the effect: 96 ± 11 s
[1]; C-PAF 2 min, no peptide in pipette
  cells with repolarization abnormalities: 5 of 7
[1]; C-PAF, PKCε-specific inhibitor peptide 100 nM in pipette
  repolarization abnormalities: failed to induce repolarization abnormalities in any of the 8 cells
[1]; C-PAF, scrambled peptide 100 nM in pipette
  cells with abnormalities during repolarization: 14 of 19
